Where “and” joins values, the source holds several entries; their conditions need not be identical. Identical values can stand only once.
Target: T1, HSL (Rattus norvegicus, UniProt P15304)
T1 construct: The partially purified HSL can be stored at −70° C. for 4 to 6 weeks; from tissue; host or cells: rat epididymal fat cells (male Wistar rats)
T1 sequence (P15304 1-768 isoform P15304-2): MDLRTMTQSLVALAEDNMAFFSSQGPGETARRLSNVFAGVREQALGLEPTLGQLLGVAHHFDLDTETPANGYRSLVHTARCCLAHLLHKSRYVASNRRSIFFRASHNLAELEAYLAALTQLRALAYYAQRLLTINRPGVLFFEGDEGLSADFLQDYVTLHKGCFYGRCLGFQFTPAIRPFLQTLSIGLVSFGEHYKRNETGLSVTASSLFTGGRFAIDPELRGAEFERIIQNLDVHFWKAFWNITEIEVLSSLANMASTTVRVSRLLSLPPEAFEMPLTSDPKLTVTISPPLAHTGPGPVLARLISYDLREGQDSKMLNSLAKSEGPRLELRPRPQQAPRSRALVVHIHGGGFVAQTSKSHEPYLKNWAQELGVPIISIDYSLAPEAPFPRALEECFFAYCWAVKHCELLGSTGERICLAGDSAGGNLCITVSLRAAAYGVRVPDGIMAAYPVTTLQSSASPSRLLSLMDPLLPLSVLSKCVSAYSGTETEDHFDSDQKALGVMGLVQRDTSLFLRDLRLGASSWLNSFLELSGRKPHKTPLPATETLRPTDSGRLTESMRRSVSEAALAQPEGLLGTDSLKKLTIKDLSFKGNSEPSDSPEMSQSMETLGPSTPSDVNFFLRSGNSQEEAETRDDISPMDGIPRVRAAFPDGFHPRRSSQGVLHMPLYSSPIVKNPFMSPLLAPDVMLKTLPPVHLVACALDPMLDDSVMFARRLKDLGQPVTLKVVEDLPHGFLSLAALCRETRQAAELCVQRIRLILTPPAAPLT
Assay: Indirect NAG assay (extinction increase at 481 nm)
Format: biochemical
Experimental: A typical reaction is carried out at 30° C. for 60 min, for example in 1.5 ml Eppendorf vessels or 96-hole plates. […] 180 μl of the substrate solution (20 μg/ml of phosphatidylcholine, 10 μg/ml of phosphatidylinositol, 50 μg/ml of NAG in assay buffer) are added. After a preincubation for 15 min at 30° C., 20 μl of HSL in assay buffer are pipetted in and the extinction is immediately measured (see above) at 481 nm in a cuvette photometer (0.5 ml cuvette) or microtiter plate reader. After a certain incubation time, which is variable and depends on the chosen enzyme concentration and can be between 2 and 240 minutes, in this case incubation at 30° C. for 60 min, the extinction is measured again. The increase in the extinction in the yellow region, in this case at 481 nm, is a measure of the enzyme activity.
Isolated rat fat cells are obtained from epididymal fatty tissue from untreated male rats (Wistar, 220-250 g) by collagenase treatment according to published processes. The fat cells from 10 rats are washed three times by flotation with 50 ml each of homogenization buffer ([…], pH 7.4, 0.25 M sucrose, 1 mM ethylenediamine-N,N,N′,N′-tetraacetic acid (EDTA), 1 mM dithiothreitol (DTT), 10 μg/ml of leupeptin, 10 μg/ml of antipain, 20 μg/ml of pepstatin) and finally taken up in 10 ml of homogenization buffer. The fat cells are homogenized in a Teflon-in-glass homogenizer (Braun-Melsungen) by 10 strokes at 1500 rpm and 15° C. The homogenizate is centrifuged (Sorvall SM24 tubes, 5000 rpm, 10 min, 4° C.). The […] between the overlying fatty layer and the pellet is removed and the centrifugation is repeated. The […] resulting from this is centrifuged again (Sorvall SM24 tubes, 20,000 rpm, 45 min, 4° C.). […] After incubation for 60 min at 4° C. (shake at intervals of 15 min), the batch is centrifuged (Sorvall SM24 tubes, 3000 rpm, 10 min, 4° C.). The supernatant is brought to pH 5.2 by addition of glacial acetic acid and incubated at 4° C. for 30 min. […] The suspension is dialyzed overnight at 4° C. against 25 mM TRIS/HCl, pH 7.4, 50% glycerol, 1 mM DTT, and 10 μg/ml of leupeptin, pepstatin, and antipain and then applied to a hydroxylapatite column (0.1 g per 1 ml of suspension, equilibrated with 10 mM potassium phosphate, pH 7.0, 30% glycerol, 1 mM DTT). The column is washed with four volumes of equilibration buffer at a flow rate of 20 to 30 ml/h. The HSL is eluted with a volume of equilibration buffer which contains 0.5 M potassium phosphate, then dialyzed (see above) and concentrated 5 to 10 times by ultrafiltration (Amicon Diaflo PM 10 filter) at 4° C. The partially purified HSL can be stored at −70° C. for 4 to 6 weeks.
6 mg of phosphatidylcholine and 6 mg of phosphatidylinositol are dissolved in 1 ml of chloroform each. 10 mg of NAG are dissolved in 1 ml of chloroform. […] The chloroform (225 μl total volume) is completely removed by overblowing with a stream of N2. The dried substrate can be stored at 4° C. for up to three days. For the preparation of the phospholipid vesicles/micelles having intercalated NAG (on the test day), the dried substrate is taken up in 20 ml of assay buffer (25 mM TRIS/HCl, pH 7.4; 150 mM NaCl) and two ultrasonic treatments with an ultrasonic probe (Branson Sonifier type 11, standard microtip): 1st treatment setting 2, 2×1 min, in between in each case 1 min on ice; 2nd treatment setting 4, 2×1 min, in between in each case 1 min on ice. […] Before use as a substrate (within the next 2 h), the solution is additionally incubated on ice for 15 min.
The assay is carried out at 30° C. for 60 min in 1.5 ml Eppendorf vessels or 96-hole plates.

For O=C(CCCCCCCCCCCNc1ccc([N+](=O)[O-])c2nonc12)OCC(O)CO (racemic) [Compound 3], the IC50 was 1520 nM and 2140 nM.

Reference: patent publication US6783949B1, “Processes for determining whether a test substance contains lipases or lipase inhibitors” (Aventis Pharma Deutschland GmbH, priority 1999, dated 2004)
